According to ChEMBL document CHEMBL1201862, “PubChem BioAssay data set” (2004):
Active and inactive are the calls of the source.

How the values were obtained:
[1] = target: T1, Alkaline phosphatase, tissue-nonspecific isozyme (Homo sapiens, UniProt P05186)
T1 sequence (P05186 whole entry): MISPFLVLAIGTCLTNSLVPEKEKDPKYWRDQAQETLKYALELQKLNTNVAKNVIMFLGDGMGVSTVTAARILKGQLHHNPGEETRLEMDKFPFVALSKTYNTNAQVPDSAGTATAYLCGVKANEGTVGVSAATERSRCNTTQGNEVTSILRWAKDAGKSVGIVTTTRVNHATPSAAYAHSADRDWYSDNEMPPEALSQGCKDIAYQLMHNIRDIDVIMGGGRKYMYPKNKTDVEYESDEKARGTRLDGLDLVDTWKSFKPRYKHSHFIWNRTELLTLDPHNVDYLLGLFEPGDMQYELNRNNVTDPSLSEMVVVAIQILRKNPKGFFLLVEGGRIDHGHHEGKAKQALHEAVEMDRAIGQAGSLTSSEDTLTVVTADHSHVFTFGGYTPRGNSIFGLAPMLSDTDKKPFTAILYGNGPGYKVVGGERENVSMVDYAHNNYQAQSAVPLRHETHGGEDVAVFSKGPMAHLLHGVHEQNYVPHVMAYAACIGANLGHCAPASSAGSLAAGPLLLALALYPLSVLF

[2] = target: T2, Eukaryotic translation initiation factor 4H (Homo sapiens, UniProt Q15056); test: eIF4H inhibition in translation initiation, SAR follow-up (AID 435011); type: functional
[3] = target: T3, Polyadenylate-binding protein 1 (Homo sapiens, UniProt P11940); test: PABP poly(A) RNA binding inhibitors, primary screen, biochemical, fluorescence polarization, uHTS (AID 2014)
[4] = target: T3, Polyadenylate-binding protein 1; test: PABP inhibition in translation initiation, SAR follow-up (AID 435018); type: functional
[5] = target: T2, Eukaryotic translation initiation factor 4H; test: human eIF4H binding inhibitors, primary screen, translation initiation inhibitor project, biochemical, uHTS, fluorescence polarization (AID 2012)
X-box-binding protein 1 = X-box-binding protein 1 (Homo sapiens, UniProt P17861); type: functional, Cricetulus griseus;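 note: confirmatory dose-response counter-screen serving a CHOP assay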
[6] = target: T4, Carboxy-terminal domain RNA polymerase II polypeptide A small phosphatase 1 (Homo sapiens, UniProt Q9GZU7); test: inhibitors of CTDSP1, concentration-response testing, biochemical assay, absorbance-based, actives from ultra-high-throughput screening (AID 540297); type: functional
T4 sequence (Q9GZU7 whole entry): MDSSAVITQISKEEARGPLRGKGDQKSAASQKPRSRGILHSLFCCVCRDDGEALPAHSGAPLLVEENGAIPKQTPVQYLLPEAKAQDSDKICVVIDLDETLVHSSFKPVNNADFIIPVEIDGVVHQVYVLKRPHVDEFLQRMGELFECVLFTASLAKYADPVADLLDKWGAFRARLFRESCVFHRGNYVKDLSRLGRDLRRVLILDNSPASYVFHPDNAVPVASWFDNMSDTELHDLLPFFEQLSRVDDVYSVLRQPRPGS

[7] = target: T5, Long-chain-fatty-acid--AMP ligase FadD28 (Mycobacterium tuberculosis, UniProt P9WQ59); test: Fluorescence polarization aasay to screen for inhibitors that compete for the binding of FadD28 to a bisubstrate Measured in Biochemical System Using Plate Reader - 2147-01_Inhibitor_Dose_CherryPick_Activity.; type: functional, Mycobacterium tuberculosis H37Rv
T5 sequence (P9WQ59 whole entry): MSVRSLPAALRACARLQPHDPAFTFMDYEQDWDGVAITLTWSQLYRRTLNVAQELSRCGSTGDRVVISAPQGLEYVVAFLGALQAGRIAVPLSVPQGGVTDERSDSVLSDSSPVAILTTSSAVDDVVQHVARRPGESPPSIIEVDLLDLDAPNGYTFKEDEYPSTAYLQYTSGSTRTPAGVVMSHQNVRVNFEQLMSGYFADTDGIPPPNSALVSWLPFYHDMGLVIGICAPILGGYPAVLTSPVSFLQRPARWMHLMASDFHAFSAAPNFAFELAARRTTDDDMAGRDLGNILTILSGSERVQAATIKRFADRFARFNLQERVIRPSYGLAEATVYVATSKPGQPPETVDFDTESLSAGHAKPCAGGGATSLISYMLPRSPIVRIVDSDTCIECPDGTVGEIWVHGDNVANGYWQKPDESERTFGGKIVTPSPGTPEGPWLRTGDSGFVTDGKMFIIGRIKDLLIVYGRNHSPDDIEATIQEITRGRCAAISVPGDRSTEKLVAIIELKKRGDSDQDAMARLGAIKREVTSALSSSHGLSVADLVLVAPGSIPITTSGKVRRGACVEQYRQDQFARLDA

ORF 73 = target: T6, ORF 73 (Human herpesvirus 8, UniProt O40947); test: inhibitors of C-LANA binding to LBS DNA, dose response, biochemical, fluorescence polarization, cherry-picked samples (AID 504725); set-up: species or system Human gammaherpesvirus 8;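 note: fluorescence polarization of a labeled DNA duplex reporting LANA DNA binding; potency is for inhibitors that block LANA binding to the DNA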
T6 sequence (O40947 whole entry): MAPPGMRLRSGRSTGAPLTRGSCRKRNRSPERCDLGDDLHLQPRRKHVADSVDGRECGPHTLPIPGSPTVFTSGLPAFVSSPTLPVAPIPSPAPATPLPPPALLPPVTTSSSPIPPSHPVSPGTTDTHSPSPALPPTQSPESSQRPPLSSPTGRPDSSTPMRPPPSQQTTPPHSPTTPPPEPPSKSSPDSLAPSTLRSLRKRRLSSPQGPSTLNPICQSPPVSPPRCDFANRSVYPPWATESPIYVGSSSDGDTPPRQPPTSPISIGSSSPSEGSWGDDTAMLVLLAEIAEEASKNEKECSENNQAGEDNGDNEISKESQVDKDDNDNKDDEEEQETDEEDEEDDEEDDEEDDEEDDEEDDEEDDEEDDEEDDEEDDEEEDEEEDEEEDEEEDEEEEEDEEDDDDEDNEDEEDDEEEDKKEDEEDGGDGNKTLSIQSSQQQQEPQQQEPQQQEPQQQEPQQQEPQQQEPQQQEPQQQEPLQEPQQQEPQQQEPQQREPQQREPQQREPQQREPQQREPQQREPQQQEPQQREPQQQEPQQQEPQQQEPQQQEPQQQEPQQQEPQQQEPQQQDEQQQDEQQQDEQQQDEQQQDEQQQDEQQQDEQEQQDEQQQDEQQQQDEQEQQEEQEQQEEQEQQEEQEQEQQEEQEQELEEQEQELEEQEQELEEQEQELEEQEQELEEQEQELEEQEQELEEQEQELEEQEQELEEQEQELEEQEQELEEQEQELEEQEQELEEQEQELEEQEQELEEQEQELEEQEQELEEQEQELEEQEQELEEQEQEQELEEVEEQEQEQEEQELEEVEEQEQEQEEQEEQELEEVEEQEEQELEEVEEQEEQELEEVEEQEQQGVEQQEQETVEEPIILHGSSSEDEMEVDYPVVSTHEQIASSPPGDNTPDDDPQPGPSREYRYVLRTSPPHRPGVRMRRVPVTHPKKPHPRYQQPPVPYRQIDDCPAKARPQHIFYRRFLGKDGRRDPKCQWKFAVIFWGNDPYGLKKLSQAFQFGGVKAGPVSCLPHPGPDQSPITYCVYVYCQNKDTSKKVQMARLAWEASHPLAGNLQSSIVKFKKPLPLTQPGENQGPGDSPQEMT

[8] = target: Bifunctional protein GlmU (Mycobacterium tuberculosis, UniProt P9WMN3); test: Inhibitors of Mycobacterial Glucosamine-1-phosphate acetyl transferase (GlmU). Secondary screen.; set-up: species or system Mycobacterium tuberculosis H37Rv
Leucine aminopeptidase = Leucine aminopeptidase (Plasmodium falciparum 3D7, UniProt Q8IL11); test: P. falciparum M17LAP inhibitors, primary screen, biochemical, fluorogenic H-Leu-NHMec substrate, 1536-well (AID 1619); type: functional
[9] = target: DNA (cytosine-5)-methyltransferase 1 (Homo sapiens, UniProt P26358); test: DNMT1 methyltransferase inhibitors, confirmation, biochemical, fluorescent molecular beacon (AID 602386); type: functional
[10] = target: T7, Histone-lysine N-methyltransferase NSD2 (Homo sapiens, UniProt O96028); type: biochemical
T7 sequence (O96028 whole entry): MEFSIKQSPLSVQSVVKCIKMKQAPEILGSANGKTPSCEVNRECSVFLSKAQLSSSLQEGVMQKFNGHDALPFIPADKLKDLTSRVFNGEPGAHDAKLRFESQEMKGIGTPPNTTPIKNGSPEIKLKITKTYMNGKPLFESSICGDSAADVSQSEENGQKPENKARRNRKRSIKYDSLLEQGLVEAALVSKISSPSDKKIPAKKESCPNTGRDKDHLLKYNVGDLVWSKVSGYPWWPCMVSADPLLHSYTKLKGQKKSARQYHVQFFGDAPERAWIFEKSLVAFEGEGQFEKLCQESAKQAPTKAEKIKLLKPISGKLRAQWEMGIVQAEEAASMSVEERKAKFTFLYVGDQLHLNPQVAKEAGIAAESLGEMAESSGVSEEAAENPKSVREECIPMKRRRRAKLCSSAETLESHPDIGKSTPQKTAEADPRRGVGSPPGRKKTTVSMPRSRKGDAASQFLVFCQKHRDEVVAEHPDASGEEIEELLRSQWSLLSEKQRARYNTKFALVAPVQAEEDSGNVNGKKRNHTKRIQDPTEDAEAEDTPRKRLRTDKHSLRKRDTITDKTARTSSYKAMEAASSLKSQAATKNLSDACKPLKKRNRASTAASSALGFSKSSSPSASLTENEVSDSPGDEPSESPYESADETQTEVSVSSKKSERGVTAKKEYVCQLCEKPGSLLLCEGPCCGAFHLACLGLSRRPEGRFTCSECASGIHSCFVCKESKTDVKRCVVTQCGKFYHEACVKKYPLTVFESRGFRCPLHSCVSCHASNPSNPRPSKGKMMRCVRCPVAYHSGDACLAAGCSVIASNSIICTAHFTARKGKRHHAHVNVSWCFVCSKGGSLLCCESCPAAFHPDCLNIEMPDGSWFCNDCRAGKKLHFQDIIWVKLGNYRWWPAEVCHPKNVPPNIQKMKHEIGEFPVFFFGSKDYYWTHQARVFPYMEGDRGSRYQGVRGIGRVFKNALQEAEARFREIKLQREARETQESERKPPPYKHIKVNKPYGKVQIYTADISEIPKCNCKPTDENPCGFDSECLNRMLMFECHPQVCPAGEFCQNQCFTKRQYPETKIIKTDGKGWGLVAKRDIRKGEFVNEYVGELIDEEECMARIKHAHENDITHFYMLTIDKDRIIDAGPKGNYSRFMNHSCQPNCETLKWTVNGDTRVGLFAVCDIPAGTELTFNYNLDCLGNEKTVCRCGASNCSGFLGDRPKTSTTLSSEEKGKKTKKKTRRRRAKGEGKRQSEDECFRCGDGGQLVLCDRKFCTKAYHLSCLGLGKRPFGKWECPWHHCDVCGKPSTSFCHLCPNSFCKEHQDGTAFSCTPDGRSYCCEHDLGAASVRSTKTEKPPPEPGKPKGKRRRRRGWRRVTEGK

[11] = target: DNA dC->dU-editing enzyme APOBEC-3A (Homo sapiens, UniProt P31941); test: Dose Response confirmation of small molecule APOBEC3A DNA Deaminase Inhibitors via a fluorescence-based single-stranded DNA deaminase assay. [Related pubchem assays (depositor defined):AID493011, AID493024]; type: functional
[12] = target: DNA dC->dU-editing enzyme APOBEC-3G (Homo sapiens, UniProt Q9HC16); type: functional;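 note: Dose-response counterscreen measuring inhibition of APOBEC3G DNA deaminase activity, run while confirming APOBEC3A inhibitors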
[13] = target: Intestinal-type alkaline phosphatase (Mus musculus, UniProt P24822); test: PubChem AID 488785; type: functional
[14] = target: Intestinal-type alkaline phosphatase (Homo sapiens, UniProt P09923); test: inhibition of human intestinal alkaline phosphatase – biochemical, dose response (AID 488876); type: functional
[15] = Shn3 3'UTR reporter inhibitors, dose response, cell-based, Clone20 osteoblasts, firefly luciferase, cherry-picked (AID 624132); type: functional;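 note: firefly luciferase luminescence from reporter carrying the Shn3 3'UTR in osteoblasts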
[16] = HepG2 cell cytotoxicity, dose response, cytotoxicity control for Shn3 inhibitor project, CellTiter-Glo, cherry-picked (AID 624134); type: functional, cell-based
[17] = control 3'UTR Renilla luciferase suppression, dose response, counter-screen for Shn3 inhibitor project, cell-based, Clone20-Shn3RL, cherry-picked (AID 624133); type: functional
[18] = target: T1, Alkaline phosphatase, tissue-nonspecific isozyme; test: TNAP enzyme inhibition by screening hits, dose response, selectivity assay for mouse IAP inhibitor project, biochemical, human TNAP, uHTS hits (AID 488906); type: functional

T3 sequence (P11940 whole entry): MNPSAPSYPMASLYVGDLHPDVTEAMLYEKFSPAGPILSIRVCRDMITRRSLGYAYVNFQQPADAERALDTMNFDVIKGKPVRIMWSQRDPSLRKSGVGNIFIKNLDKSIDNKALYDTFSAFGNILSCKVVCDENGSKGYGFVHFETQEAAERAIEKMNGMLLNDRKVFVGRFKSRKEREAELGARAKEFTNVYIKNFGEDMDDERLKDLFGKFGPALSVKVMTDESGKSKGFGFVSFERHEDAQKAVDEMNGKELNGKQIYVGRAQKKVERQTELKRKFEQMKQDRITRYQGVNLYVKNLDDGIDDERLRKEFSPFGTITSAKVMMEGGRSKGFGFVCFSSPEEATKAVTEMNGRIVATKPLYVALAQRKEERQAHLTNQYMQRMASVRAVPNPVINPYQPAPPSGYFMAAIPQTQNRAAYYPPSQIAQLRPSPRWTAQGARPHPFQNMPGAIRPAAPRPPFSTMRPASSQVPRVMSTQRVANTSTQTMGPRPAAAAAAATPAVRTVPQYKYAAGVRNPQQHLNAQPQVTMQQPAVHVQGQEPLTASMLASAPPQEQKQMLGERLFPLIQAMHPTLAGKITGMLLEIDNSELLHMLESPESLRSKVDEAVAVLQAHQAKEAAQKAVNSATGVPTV
Chain of DNA dC->dU-editing enzyme APOBEC-3A (P31941 whole entry): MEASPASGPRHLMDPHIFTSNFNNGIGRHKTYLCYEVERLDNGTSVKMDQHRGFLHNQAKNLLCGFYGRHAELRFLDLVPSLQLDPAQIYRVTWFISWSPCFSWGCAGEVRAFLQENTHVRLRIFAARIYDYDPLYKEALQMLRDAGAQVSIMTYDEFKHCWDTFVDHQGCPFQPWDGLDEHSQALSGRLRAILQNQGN
Chain of Bifunctional protein GlmU (P9WMN3 whole entry): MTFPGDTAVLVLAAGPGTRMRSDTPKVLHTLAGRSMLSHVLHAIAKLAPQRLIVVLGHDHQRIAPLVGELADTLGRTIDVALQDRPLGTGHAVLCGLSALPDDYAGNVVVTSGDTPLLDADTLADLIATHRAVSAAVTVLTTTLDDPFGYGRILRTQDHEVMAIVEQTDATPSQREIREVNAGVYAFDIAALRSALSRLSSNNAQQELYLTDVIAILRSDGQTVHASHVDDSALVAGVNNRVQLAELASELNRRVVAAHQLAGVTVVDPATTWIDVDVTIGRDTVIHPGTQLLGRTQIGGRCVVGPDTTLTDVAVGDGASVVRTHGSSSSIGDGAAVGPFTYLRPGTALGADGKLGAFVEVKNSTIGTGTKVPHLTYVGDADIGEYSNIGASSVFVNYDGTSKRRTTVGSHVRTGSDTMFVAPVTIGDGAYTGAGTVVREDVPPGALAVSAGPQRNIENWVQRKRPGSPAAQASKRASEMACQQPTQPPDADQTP
Chain of X-box-binding protein 1 (P17861 whole entry, the tested form may be a part): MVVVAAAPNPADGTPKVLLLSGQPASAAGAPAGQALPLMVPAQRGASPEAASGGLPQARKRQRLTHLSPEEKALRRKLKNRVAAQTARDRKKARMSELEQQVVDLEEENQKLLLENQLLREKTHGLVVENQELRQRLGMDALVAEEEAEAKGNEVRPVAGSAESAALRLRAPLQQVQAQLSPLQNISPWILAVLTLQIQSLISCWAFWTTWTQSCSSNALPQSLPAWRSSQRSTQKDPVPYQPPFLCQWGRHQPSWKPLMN
Chain of Leucine aminopeptidase (Q8IL11 whole entry): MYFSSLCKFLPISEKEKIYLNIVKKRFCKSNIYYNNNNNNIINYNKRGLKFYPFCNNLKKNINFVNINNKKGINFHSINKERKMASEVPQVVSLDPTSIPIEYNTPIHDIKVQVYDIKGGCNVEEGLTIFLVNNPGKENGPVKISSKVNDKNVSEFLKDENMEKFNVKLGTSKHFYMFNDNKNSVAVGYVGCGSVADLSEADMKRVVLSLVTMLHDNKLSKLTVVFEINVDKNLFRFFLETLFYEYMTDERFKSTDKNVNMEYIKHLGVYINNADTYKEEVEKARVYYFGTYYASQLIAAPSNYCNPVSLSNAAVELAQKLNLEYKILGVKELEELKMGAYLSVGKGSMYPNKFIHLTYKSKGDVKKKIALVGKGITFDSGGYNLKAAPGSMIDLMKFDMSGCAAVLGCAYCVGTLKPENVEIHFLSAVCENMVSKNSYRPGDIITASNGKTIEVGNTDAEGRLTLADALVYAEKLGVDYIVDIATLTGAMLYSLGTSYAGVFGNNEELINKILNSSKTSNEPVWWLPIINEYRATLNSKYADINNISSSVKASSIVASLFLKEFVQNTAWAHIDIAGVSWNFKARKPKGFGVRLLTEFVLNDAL
Chain of DNA (cytosine-5)-methyltransferase 1 (P26358 whole entry): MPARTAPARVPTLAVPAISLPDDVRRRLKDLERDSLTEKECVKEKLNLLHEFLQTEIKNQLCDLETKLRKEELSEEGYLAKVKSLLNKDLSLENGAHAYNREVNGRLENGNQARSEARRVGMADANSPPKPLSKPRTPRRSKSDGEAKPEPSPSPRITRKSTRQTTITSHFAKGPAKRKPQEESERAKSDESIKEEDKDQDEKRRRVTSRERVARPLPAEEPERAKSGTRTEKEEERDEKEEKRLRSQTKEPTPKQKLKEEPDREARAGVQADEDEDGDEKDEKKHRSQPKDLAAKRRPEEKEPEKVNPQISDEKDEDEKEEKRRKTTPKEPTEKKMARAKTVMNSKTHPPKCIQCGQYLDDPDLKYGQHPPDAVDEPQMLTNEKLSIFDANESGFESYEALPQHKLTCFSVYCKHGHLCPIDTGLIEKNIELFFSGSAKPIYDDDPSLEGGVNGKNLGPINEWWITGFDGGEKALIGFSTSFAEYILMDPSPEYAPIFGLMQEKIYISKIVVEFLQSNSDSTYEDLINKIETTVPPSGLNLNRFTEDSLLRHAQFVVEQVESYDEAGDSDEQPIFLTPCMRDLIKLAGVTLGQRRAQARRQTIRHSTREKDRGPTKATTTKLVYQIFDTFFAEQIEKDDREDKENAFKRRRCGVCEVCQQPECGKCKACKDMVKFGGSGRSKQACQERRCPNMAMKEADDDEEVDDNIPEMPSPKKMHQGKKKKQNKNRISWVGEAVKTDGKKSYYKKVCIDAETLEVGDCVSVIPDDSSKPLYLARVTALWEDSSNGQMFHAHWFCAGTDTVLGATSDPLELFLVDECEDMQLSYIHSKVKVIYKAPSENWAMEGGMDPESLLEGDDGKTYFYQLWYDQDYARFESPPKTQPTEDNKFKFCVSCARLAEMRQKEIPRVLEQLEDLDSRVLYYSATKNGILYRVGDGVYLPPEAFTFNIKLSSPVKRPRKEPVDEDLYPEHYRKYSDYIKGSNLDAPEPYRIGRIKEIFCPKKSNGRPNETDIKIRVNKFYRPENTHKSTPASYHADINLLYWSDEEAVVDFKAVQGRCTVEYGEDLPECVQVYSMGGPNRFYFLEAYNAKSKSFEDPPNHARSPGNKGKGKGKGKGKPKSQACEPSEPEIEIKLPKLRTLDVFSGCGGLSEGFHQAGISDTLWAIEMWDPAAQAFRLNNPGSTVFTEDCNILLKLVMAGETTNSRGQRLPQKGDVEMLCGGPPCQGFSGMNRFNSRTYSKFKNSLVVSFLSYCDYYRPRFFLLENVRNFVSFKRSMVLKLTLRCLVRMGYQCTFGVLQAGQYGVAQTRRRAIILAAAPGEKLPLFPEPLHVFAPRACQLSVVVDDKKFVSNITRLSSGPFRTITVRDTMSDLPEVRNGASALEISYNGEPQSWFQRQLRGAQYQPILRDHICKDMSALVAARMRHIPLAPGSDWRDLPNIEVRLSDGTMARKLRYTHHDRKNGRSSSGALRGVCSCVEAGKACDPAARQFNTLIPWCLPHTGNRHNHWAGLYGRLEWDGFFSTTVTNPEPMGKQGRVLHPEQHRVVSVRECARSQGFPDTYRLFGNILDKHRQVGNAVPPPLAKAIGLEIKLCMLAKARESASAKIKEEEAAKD
Chain of DNA dC->dU-editing enzyme APOBEC-3G (Q9HC16 whole entry): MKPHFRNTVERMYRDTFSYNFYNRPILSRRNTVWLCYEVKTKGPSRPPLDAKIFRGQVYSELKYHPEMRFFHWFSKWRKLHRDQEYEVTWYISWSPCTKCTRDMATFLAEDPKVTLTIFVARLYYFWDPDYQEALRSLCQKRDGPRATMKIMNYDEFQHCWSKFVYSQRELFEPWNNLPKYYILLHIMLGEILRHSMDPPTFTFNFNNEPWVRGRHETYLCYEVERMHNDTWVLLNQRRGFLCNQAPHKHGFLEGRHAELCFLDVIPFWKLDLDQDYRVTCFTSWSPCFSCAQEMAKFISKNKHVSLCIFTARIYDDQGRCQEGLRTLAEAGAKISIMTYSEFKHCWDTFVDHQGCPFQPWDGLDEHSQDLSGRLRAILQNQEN
Chain of Intestinal-type alkaline phosphatase (Homo sapiens, UniProt P09923) (P09923 whole entry): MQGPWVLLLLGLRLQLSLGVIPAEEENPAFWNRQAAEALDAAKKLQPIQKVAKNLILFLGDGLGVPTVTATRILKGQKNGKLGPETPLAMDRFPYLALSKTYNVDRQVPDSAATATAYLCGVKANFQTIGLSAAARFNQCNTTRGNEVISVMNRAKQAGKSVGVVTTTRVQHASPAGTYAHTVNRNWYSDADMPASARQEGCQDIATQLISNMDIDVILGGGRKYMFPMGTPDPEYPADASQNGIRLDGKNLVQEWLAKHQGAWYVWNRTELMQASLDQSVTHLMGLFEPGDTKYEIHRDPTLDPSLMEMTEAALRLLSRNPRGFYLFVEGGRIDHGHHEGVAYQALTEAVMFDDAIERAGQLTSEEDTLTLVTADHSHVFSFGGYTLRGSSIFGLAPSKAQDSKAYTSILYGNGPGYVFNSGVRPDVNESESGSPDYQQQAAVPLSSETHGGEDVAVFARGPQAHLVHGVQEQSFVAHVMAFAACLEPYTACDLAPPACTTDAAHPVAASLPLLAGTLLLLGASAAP

CC(C)CN=C(S)NNC(=O)c1ccc2c(c1)OCO2
EC50 [1]: 40.7 µM (active)

CC(=O)Nc1cccc(NC(=O)CSc2ccc(-c3ccco3)nn2)c1
IC50 [2]: 25 µM (active) | IC50 [3]: 46.3 µM (active) | IC50 [4]: > 100 µM (inactive) | IC50 [5]: 10.3 µM (active)

Cc1ccc(/C=N/n2c(S)nnc2C2CCCCC2)s1
Absolute IC50 (XBP1) (X-box-binding protein 1): 10 µM

Cc1cc(/C=C2\C(=O)NC(=O)N(Cc3ccccc3)C2=O)c(C)n1-c1ccc(Cl)c(C(=O)O)c1
IC50 [6]: 1.02 µM (active) | AC50 [7]: 35.6 µM (active) | AC50 (ORF 73): 76.2 µM (active) | IC50 [8]: 71.9 µM (active) | IC50 (Leucine aminopeptidase): 72.7 µM (active) | IC50 [9]: 3.35 µM (active) | AC50 [10]: 5.47 µM (active)

CCN1CCN(S(=O)(=O)c2ccc(Cl)c(C(=O)N(CC)CC(=O)Nc3ccc(OC)cc3)c2)CC1
IC50 [2]: 21 µM (active) | IC50 [11]: 3.4 µM (active) | IC50 [3]: 3.26 µM (active) | IC50 [4]: 4.68 µM (active) | IC50 [5]: 85.9 µM (active) | IC50 [12]: 3.43 µM (active)

Cc1ccc(N=C(N)Nc2nc(C)cc(N3CCCCC3)n2)c(C)c1
IC50 [13]: 3.34 µM (active) | IC50 [14]: 70.1 µM (active) | AC50 [15]: 0.891 µM (active) | AC50 [16]: 5.74 µM (active) | AC50 [17]: 0.639 µM (active) | EC50 [1]: 71.7 µM (not active) | IC50 [18]: 32.1 µM (active)
